pIC50: −log10 of the molar value. Where a name gives a salt, the structure may show the parent alone.
Key:
[1] = test system: Diet Induced Obese (DIO) C57BL/6 mice; test: 10 day DIO mouse model (body weight, food intake, hematology, blood chemistry); type: in vivo; details: mouse, in vivo, sc, 0.3 mg/kg
Source text: The objective of this study design was to investigate the efficacy of disclosed compounds in a 10 day DIO mouse model. Effects on body weight, food intake, hematology and blood chemistry were the primary readouts of this study design. […] Mice were fed Research Diets D12492 (60% Kcal fat, 20% Kcal carbohydrate and 20% protein) and provided water ad libitum. DIO mice were received and housed in the facility for approximately two weeks prior to the start of test article administration. On Day −4 or −3, mice were randomized into study groups based on body weight and body weights were continued to be recorded daily for the duration of the study. Daily food intake was assessed starting on Study Day −2 by weighing of the food with hopper together to avoid loss of food in transfer.
(§1) Compounds were formulated into a 100% DMSO stock (at 9 mg/mL) prior to the start, and further diluted into the target working concentration using the vehicle of 10% DMSO in water. Prior to test article administration, starting on Day −3 a dosing acclimation occured with all animals receiving a subcutaneous injection of vehicle (10% DMSO) only for 3 days. Starting on Day 1, test compounds or vehicle were administered based on individual body weight, subcutaneously, once a day for 10 days. All mice were sacrificed on Day 11, 24 hours following the final dosing on Day 10. After sacrifice, whole blood was collected and analyzed for hematology and blood chemistry parameters.
(§2) Compounds were tested vs. vehicle at various doses (1.0, 0.5, 0.3, 0.1, 0.03 mpk sc (mg per kg animal weight delivered subcutaneously), and the results are shown in Table 2 below.

[2] = molecular target: T1, recombinant human MetAP2 (Homo sapiens, UniProt P50579); test: Recombinant human MetAP2 enzyme inhibition assay (MAS peptide / amino acid oxidase / Amplex UltraRed); type: biochemical
T1 construct: Flag; made in house
T1 sequence (P50579 whole entry): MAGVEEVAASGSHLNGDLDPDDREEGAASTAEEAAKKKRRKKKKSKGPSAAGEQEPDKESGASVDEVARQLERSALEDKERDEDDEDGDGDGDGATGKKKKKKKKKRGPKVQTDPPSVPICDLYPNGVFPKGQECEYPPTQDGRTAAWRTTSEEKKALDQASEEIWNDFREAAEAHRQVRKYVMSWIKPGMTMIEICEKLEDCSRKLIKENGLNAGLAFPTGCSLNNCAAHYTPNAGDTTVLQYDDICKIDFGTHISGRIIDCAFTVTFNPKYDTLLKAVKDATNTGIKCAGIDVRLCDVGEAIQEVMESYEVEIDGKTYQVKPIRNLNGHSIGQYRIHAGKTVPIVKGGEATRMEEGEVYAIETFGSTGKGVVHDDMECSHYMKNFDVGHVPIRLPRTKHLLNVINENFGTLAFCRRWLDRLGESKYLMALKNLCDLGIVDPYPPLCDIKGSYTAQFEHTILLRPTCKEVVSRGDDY
Procedure: Compounds are tested for their capacity to inhibit recombinant human MetAP2 activity using the following assay.
Flag tagged Human recombinant MetAP2 expressed and isolated for use as the enzyme source. 10 mM stock solutions of compounds were prepared in 100% DMSO and further diluted in 100% DMSO required concentration to 1 mM stocks. The stock compound solutions and DMSO vehicle controls were diluted to target final compound concentrations using assay buffer to a final concentration of 50 mM HEPES containing 100 mM NaCl, pH adjusted to 7.5. The MAS peptide was formulated to a 7.5 mM stock in distilled water and prior to use further diluted 1:4. […] 40 μl of enzyme was mixed with 100 μl of MnCl2 then further diluted in assay buffer to a final concentration of 16 μg/ml. To test for compound effect on MetAP2 enzyme activity, 5 μl of test compound, 10 μl of MAS substrate/amino acid oxidase mixture, 10 μl of MetAP2 was added to test wells in a 384 well black plate with blank wells containing no enzyme, replaced with 10 μl of assay buffer. All compounds were tested in duplicate on two occasions on the same day.
The plate was sealed with a TopSeal A cover and mixed briefly on an orbital mixer at 900 rpm. The plate was incubated for a further 25 minutes at 25° C. A 5× stock of Amplex buffer was prepared (0.25M sodium phosphate, pH 7.4) and stored at 4° C. When preparing for use the stock was diluted with distilled water. […] 25 μl detection reagent was added to each well of the test plate, which was re-sealed and mixed briefly on an orbital shaker. […] At the end of the MetAP2 incubation 25 μl Amplex/HRP mixture per well was added and the plate read plate on a plate reader.

[3] = test system: embryo/fetal development in pregnant Sprague Dawley rats; details: 6 mpk subcutaneously once every three days, Gestation Days 6-18, pregnant rats
Procedure: The objective of this study design was to evaluate the potential effects of disclosed compounds on embryo/fetal development when given subcutaneously to pregnant rats once every three days during the critical period of organogenesis (Gestation Days 6-18). Female, Sprague Dawley rats, approximately 10 weeks of age, time bred, were ordered from a certified vendor and housed individually housed in stainless steel cages suspended over flush pans, on a 12-hour light-dark cycle (0700-1900) at 20-26° C. and 30-70% humidity. Rats were fed a standard rodent chow and provided water ad libitum. Rats were received and housed in the facility for a period of approximately 1 to 2 days.
Compounds were formulated using 100% DMSO mixed in Sterile Water for Injection, resulting in 2% DMSO solution in water. If necessary, due to limited solubility of a test article, a higher percentage of DMSO solution in water was used. Groups of 8 mated and presumed pregnant female rats were given subcutaneous doses of vehicle or test article, once every three days, beginning on Gestation Day 6 and ending on Gestation Day 18 (Days 6, 9, 12, 15, and 18), maintained two more days, and then euthanized and necropsied on Gestation Day 20. Body weights was recorded for all animals on Gestation Days 5 (purpose of randomization), 6, 9, 12, 15, 18, and 20 (scheduled euthanasia). Food consumption by weight was recorded on Gestation Days 6, 9, 12, 15, 18, and 20 (scheduled termination).
At necropsy, the dams were examined visually for external abnormalities including palpable masses. The abdominal, thoracic, and cranial cavities and their contents were examined for abnormalities and findings will be recorded. The reproductive tract were examined to record the number of ovarian corpora lutea, the number and location of uterine implantation sites noting the position of the cervix, and the number of early resorptions, late resorptions, live fetuses, and dead fetuses. For dead fetuses and late resorptions, crown-to-rump length and weight were recorded, if possible, and the fetus was discarded. For viable fetuses, weight, sex, and grossly visible external abnormalities were recorded.

[4] = test system: Sprague Dawley rats on high fat diet (DIO); test: 11 day rat DIO model (body weight, food intake, hematology, blood chemistry); type: in vivo; details: rat, in vivo, sc
Source text: The objective of this study design is to investigate the efficacy of disclosed compounds in an 11 day rat DIO model used to screen compounds for pharmacologic efficacy on endpoints related to obesity and metabolism. Effects on body weight, food intake, hematology and blood chemistries were the primary readouts of this study design. […] Rats were fed Research Diets D12451 (45% High Fat) and provided water ad libitum. Rats were received and housed in the facility for at least two or three weeks prior to start of test article administration. On Day −4 or −3, rats were randomized into study groups based on body weight and body weights were continued to be recorded daily for the duration of the study. Daily food intake was assessed starting on Study Day −2 by weighing the hopper including the food to avoid loss of food in transfer.
as §1, with “for 11” for “for 10”, “All animals” for “All mice”, “11, approximately 2” for “11, 24”, “Day 11.” for “Day 10.”
as §2

Row | SMILES | DIO Mouse 10-day weight loss vs vehicle at indicated dose [1] | pIC50 [2] | Rat Embryofetal @6 mpk [3] | DIO Rat 11-day weight loss vs vehicle at indicated dose ([4]; 0.3 mg/kg) | DIO Rat 11-day weight loss vs vehicle at indicated dose ([4]; 1 mg/kg)
1 | CO[C@@H]1[C@H](OC(=O)N2CC(CCN3CC(O)C3)C2)CC[C@]2(CO2)[C@H]1[C@@]1(C)O[C@@H]1CC=C(C)C [Example 6, (3R,4S,5S,6R)-5-methoxy-4-((2R,3R)-2-methyl-3-(3-methylbut-2-enyl)oxiran-2-yl)-1-oxaspiro[2.5]octan-6-yl 3-(2-(3-hydroxyazetidin-1-yl)ethyl)azetidine-1-carboxylate formate] | 11.8% | > 7.30 | Positive | 0.8% | 4.6%
2 | CO[C@@H]1[C@H](OC(=O)N2CC(CCN3CC(C)(O)C3)C2)CC[C@]2(CO2)[C@H]1[C@@]1(C)O[C@@H]1CC=C(C)C [Example 9, (3R,4S,5S,6R)-5-methoxy-4-((2R,3R)-2-methyl-3-(3-methylbut-2-enyl)oxiran-2-yl)-1-oxaspiro[2.5]octan-6-yl 3-(2-(3-hydroxy-3-methylazetidin-1-yl)ethyl)azetidine-1-carboxylate formate] | 7.4% | > 7.30 | Positive | 5.5% | 4.8%
3 | CO[C@@H]1[C@H](OC(=O)N2CC(CCN3CC4C(C3)C4(F)F)C2)CC[C@]2(CO2)[C@H]1[C@@]1(C)O[C@@H]1CC=C(C)C (stereo partly drawn) [Example 22, (3R,4S,5S,6R)-5-methoxy-4-((2R,3R)-2-methyl-3-(3-methylbut-2-enyl)oxiran-2-yl)-1-oxaspiro[2.5]octan-6-yl 3-(2-(6,6-difluoro-3-azabicyclo[3.1.0]hexan-3-yl)ethyl)azetidine-1-carboxylate formate] | 14% | > 7.30 | Negative | – | –
